Data from ChEMBL document CHEMBL5620399, “Discovery of orally active sulfonylphenyl thieno[3,2-d]pyrimidine derivatives as GPR119 agonists” (Eur J Med Chem, 2023).
One block for each molecule: values may come before it.

How the values were obtained:
[1] = biological target: T1, Glucose-dependent insulinotropic receptor (Homo sapiens, UniProt Q8TDV5); test: Agonist activity at human GPR119 expressed in CHO-K1 cells preincubated for 5 hrs followed by substrate addition measured after 2 hrs by fluorescence based assay; format: functional, cell-based
T1 sequence (Q8TDV5 whole entry): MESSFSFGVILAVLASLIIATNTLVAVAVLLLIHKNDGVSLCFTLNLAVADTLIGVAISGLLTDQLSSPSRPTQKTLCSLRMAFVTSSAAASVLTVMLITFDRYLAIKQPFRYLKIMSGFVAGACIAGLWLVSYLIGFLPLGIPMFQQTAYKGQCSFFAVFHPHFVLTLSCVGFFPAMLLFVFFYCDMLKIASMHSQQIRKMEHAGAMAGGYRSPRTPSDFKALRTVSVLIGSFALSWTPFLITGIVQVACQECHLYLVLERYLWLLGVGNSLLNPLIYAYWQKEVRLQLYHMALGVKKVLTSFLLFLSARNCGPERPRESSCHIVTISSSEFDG

[2] = Agonist activity at GPR119 in Golden hamster HIT-T15 cells assessed as increase in intracellular cAMP level incubated for 1 hr by fluorescence based assay; format: cell-based; conditions: Mesocricetus auratus, HIT-T15, 1 h
[3] = AUC (0 to 24 hrs) in Sprague-Dawley rat at 1 mg/kg, iv; format: ADME, organism-based; conditions: in vivo
[4] = Volume of distribution in Sprague-Dawley rat at 1 mg/kg, iv; format: ADME, organism-based; conditions: in vivo
[5] = MRTlast in ICR mouse at 10 mg/kg, po; format: ADME, organism-based; conditions: in vivo
[6] = biological target: Cytochrome P450 2D6 (Homo sapiens, UniProt P10635); test: Inhibition of CYP2D6 (unknown origin) using 3-[2-(N,N-diethyl-N-methylammonium)ethyl]-7-methoxy-4-methylcoumarin as substrate preincubated for 10 mins followed by addition of NADPH generating system measured after 30 mins by fluorescence based assay; format: ADME
Sequence of Cytochrome P450 2D6 (P10635 whole entry): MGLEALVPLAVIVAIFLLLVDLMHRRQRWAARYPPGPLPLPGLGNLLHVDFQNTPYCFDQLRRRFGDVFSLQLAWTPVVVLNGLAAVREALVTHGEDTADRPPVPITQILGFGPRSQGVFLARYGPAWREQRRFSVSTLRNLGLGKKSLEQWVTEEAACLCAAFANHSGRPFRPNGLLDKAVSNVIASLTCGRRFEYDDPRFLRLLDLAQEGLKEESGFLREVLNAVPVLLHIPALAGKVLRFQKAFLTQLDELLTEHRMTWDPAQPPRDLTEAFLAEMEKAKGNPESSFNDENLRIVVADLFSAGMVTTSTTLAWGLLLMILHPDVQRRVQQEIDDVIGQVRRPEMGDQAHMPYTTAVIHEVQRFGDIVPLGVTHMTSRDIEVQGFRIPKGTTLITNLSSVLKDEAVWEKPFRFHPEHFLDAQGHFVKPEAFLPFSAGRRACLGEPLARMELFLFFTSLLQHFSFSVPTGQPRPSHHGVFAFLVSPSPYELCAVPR

[7] = biological target: Cytochrome P450 2C19 (Homo sapiens, UniProt P33261); test: Inhibition of CYP2C19 (unknown origin) using 7-ethoxy-3-cyanocoumarin as substrate preincubated for 10 mins followed by addition of NADPH generating system measured after 30 mins by fluorescence based assay; format: ADME
Sequence of Cytochrome P450 2C19 (P33261 whole entry): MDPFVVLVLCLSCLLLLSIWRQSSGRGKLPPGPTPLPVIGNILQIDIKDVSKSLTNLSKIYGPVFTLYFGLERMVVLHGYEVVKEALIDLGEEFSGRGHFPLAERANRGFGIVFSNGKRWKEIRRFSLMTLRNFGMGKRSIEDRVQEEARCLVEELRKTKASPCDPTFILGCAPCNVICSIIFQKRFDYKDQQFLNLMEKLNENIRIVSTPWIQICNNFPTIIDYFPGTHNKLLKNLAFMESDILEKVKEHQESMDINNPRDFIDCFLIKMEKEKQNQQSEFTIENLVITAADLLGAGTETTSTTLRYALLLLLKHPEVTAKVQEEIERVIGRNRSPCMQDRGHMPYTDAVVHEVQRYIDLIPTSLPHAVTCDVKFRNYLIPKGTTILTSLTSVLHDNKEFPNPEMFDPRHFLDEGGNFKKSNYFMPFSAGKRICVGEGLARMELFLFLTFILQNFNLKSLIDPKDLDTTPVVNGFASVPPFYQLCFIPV

[8] = system: Rattus norvegicus; test: Anti-diabetic activity in Sprague-Dawley rat assessed as reduction in AUC (0 to 2 hrs) at 3 mg/kg, po followed by oral administration of glucose measured for 2 hrs by OGTT assay relative to control; format: functional; parameters: scale not given: the % may be the effect or the level left
[9] = Half life in ICR mouse at 10 mg/kg, po; format: ADME, organism-based; conditions: in vivo
[10] = MRTlast in Sprague-Dawley rat at 5 mg/kg, po; format: ADME, organism-based; conditions: in vivo
[11] = Microsomal stability in human liver microsomes assessed as compound remaining at 5 uM measured after 60 mins in presence of NADPH by HPLC analysis; format: ADME, Microsome; conditions: read-out: Stability
[12] = Clearance in ICR mouse at 1 mg/kg, iv; format: ADME, organism-based; conditions: in vivo
[13] = Microsomal stability in dog liver microsomes assessed as compound remaining at 5 uM measured after 60 mins in presence of NADPH by HPLC analysis; format: ADME, Canis lupus familiaris, Microsome; conditions: read-out: Stability
[14] = biological target: Cytochrome P450 2C9 (Homo sapiens, UniProt P11712); test: Inhibition of CYP2C9 (unknown origin) using 7-methoxy-4-trifluoromethylcoumarin as substrate preincubated for 10 mins followed by addition of NADPH generating system measured after 30 mins by fluorescence based assay; format: ADME
Sequence of Cytochrome P450 2C9 (P11712 whole entry): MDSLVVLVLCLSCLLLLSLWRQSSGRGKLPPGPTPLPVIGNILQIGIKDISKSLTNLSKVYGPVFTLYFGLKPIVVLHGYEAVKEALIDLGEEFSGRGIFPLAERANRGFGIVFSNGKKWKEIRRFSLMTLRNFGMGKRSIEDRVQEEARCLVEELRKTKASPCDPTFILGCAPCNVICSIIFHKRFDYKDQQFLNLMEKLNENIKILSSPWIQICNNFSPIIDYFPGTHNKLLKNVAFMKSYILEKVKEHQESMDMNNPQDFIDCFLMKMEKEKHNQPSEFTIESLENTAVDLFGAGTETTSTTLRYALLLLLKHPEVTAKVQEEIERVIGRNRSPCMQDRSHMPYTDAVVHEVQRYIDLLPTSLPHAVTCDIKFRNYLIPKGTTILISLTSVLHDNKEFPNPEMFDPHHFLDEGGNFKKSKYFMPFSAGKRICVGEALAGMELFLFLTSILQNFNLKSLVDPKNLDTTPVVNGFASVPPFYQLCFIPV

[15] = MRTlast in Sprague-Dawley rat at 1 mg/kg, iv; format: ADME, organism-based; conditions: in vivo
[16] = biological target: Cytochrome P450 3A4 (Homo sapiens, UniProt P08684); test: Inhibition of CYP3A4 (unknown origin) using 7-benzyloxy-4-trifluoromethylcoumarin as substrate preincubated for 10 mins followed by addition of NADPH generating system measured after 30 mins by fluorescence based assay; format: ADME
Sequence of Cytochrome P450 3A4 (P08684 whole entry): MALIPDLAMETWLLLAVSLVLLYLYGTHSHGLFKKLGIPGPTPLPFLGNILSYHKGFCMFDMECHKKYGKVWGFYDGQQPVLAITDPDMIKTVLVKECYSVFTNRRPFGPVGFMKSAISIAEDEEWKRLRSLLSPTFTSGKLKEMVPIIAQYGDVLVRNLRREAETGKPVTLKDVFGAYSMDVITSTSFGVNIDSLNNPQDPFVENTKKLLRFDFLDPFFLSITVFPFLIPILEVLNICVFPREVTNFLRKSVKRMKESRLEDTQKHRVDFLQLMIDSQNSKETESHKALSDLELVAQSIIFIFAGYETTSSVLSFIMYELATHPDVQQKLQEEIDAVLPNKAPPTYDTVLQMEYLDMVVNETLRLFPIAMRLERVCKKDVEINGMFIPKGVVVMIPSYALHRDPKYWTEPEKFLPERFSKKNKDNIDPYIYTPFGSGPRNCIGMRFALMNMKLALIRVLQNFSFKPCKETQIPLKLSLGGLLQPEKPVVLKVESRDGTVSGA

[17] = Cmax in ICR mouse at 10 mg/kg, po; format: ADME, organism-based; conditions: in vivo
[18] = Microsomal stability in mouse liver microsomes assessed as compound remaining at 5 uM measured after 60 mins in presence of NADPH by HPLC analysis; format: ADME, Microsome; conditions: read-out: Stability
[19] = Oral bioavailability in Sprague-Dawley rat at 5 mg/kg; format: ADME, organism-based; conditions: in vivo
[20] = Clearance in Sprague-Dawley rat at 1 mg/kg, iv; format: ADME, organism-based; conditions: in vivo
[21] = AUC (0 to 24 hrs) in Sprague-Dawley rat at 5 mg/kg, po; format: ADME, organism-based; conditions: in vivo
[22] = Half life in Sprague-Dawley rat at 1 mg/kg, iv; format: ADME, organism-based; conditions: in vivo
[23] = Oral bioavailability in ICR mouse at 10 mg/kg; format: ADME, organism-based; conditions: in vivo
[24] = Tmax in Sprague-Dawley rat at 5 mg/kg, po; format: ADME, organism-based; conditions: in vivo
[25] = AUC (0 to 24 hrs) in ICR mouse at 1 mg/kg, iv; format: ADME, organism-based; conditions: in vivo
[26] = MRTlast in ICR mouse at 1 mg/kg, iv; format: ADME, organism-based; conditions: in vivo
[27] = system: Mus musculus; test: Anti-diabetic activity in C57BL mouse assessed as reduction in AUC (0 to 2 hrs) at 3 mg/kg, po followed by oral administration of glucose measured for 2 hrs by OGTT assay relative to control; format: functional; parameters: scale not given: the % may be the effect or the level left
[28] = Half life in ICR mouse at 1 mg/kg, iv; format: ADME, organism-based; conditions: in vivo
[29] = Microsomal stability in rat liver microsomes assessed as compound remaining at 5 uM measured after 60 mins in presence of NADPH by HPLC analysis; format: ADME, Microsome; conditions: read-out: Stability
[30] = Volume of distribution in ICR mouse at 1 mg/kg, iv; format: ADME, organism-based; conditions: in vivo
[31] = AUC (0 to 24 hrs) in ICR mouse at 10 mg/kg, po; format: ADME, organism-based; conditions: in vivo
[32] = biological target: T2, Cytochrome P450 1A2 (Homo sapiens, UniProt P05177); test: Inhibition of CYP1A2 (unknown origin) using 7-ethoxy-3-cyanocoumarin as substrate preincubated for 10 mins followed by addition of NADPH generating system measured after 30 mins by fluorescence based assay; format: ADME
T2 sequence (P05177 whole entry): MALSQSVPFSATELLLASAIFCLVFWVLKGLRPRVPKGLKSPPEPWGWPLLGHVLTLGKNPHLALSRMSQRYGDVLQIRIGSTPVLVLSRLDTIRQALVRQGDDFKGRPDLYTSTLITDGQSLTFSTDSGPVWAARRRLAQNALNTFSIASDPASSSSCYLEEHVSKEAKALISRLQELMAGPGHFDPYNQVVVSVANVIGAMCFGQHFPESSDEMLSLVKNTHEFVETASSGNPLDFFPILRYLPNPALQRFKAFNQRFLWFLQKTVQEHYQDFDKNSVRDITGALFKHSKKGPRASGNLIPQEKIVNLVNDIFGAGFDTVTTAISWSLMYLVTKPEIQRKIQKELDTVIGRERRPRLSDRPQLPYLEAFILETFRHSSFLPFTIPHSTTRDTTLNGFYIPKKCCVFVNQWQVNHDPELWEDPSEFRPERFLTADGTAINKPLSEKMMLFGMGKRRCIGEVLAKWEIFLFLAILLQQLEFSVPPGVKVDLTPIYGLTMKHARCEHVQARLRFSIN

[33] = Half life in Sprague-Dawley rat at 5 mg/kg, po; format: ADME, organism-based; conditions: in vivo
[34] = Tmax in ICR mouse at 10 mg/kg, po; format: ADME, organism-based; conditions: in vivo
[35] = Cmax in Sprague-Dawley rat at 5 mg/kg, po; format: ADME, organism-based; conditions: in vivo

SMILES: CC(C)(C)OC(=O)N1CCC(Nc2ncnc3c(-c4ccc(S(C)(=O)=O)cc4)csc23)CC1
EC50 [1]: > 100 nM

SMILES: CN(c1ncnc2c(-c3ccc(S(C)(=O)=O)cc3)csc12)C1CCN(C(=O)OC(C)(C)C)CC1
EC50 [1]: 33.8 nM
EC50 [2]: 19.1 nM

SMILES: CS(=O)(=O)c1ccc(-c2csc3c(OC4CCNCC4)ncnc23)c(F)c1
EC50 [1]: > 100 nM

SMILES: CCN(c1ncnc2c(-c3ccc(S(C)(=O)=O)cc3)csc12)C1CCN(c2ccc(C(F)(F)F)cn2)CC1
EC50 [1]: > 100 nM

SMILES: CS(=O)(=O)c1ccc(-c2csc3c(N4CCCCC4)ncnc23)cc1
EC50 [1]: > 100 nM

SMILES: CS(=O)(=O)c1ccc(-c2csc3c(N4CCC(c5nc(C6CCCCC6)no5)CC4)ncnc23)cc1
EC50 [1]: 12.5 nM
EC50 [2]: 32.5 nM

SMILES: CS(=O)(=O)c1ccc(-c2csc3c(OC4CCN(c5nc(C6CC6)no5)CC4)ncnc23)cc1
EC50 [1]: 24.8 nM
EC50 [2]: 47 nM

SMILES: CCc1cnc(N2CCC(N(CC)c3ncnc4c(-c5ccc(S(C)(=O)=O)cc5)csc34)CC2)nc1
EC50 [1]: 15 nM
EC50 [2]: 153 nM

SMILES: CN1CCC(Oc2ncnc3c(-c4ccc(S(C)(=O)=O)cc4F)csc23)CC1
EC50 [1]: > 100 nM

SMILES: CCN(c1ncnc2c(-c3ccc(S(C)(=O)=O)cc3)csc12)C1CCN(C(=O)OC(C)(C)C)CC1
EC50 [1]: > 100 nM

SMILES: CS(=O)(=O)c1ccc(-c2csc3c(N4CCCC4)ncnc23)cc1
EC50 [1]: > 100 nM

SMILES: CC(C)c1noc(N2CCC(Oc3ncnc4c(-c5ccc(S(C)(=O)=O)cc5)csc34)C2)n1 (configuration not stated)
EC50 [1]: 754 nM

SMILES: CCc1cnc(N2CCC(Oc3ncnc4c(-c5ccc(S(C)(=O)=O)cc5)csc34)C2)nc1 (configuration not stated)
EC50 [1]: 74.8 nM

SMILES: CS(=O)(=O)c1ccc(-c2csc3c(N4CCC(c5nc(C6CC6)no5)CC4)ncnc23)cc1
EC50 [1]: 23.9 nM
EC50 [2]: 16.8 nM

The next molecules have a lower EC50 [1] than those just listed; values first:

EC50 [1]: 7.4 nM
EC50 [2]: 35.9 nM
SMILES: CCc1cnc(N2CCC(N(C)c3ncnc4c(-c5ccc(S(C)(=O)=O)cc5)csc34)CC2)nc1

AUC(0-t) [3]: 1860 ng·h/mL
Vd [4]: 1.2 L/kg
MRT last [5]: 3.8 h
IC50 [6]: > 50 µM
IC50 [7]: 5.55 µM
half-life [9]: 132 min
MRT last [10]: 3.2 h
remaining at 1 h, 5 µM [11]: 35%
clearance [12]: 5 mL/min/kg
remaining at 1 h, 5 µM [13]: 62%
IC50 [14]: > 50 µM
MRT last [15]: 3.6 h
IC50 [16]: 3.79 µM
Cmax [17]: 9130 ng/mL
remaining at 1 h, 5 µM [18]: 38%
bioavailability [19]: 61.5%
clearance [20]: 5 mL/min/kg
AUC(0-t) [21]: 5720 ng·h/mL
half-life [22]: 168 min
bioavailability [23]: > 100%
Tmax [24]: 1 h
AUC(0-t) [25]: 2770 ng·h/mL
MRT last [26]: 3 h
EC50 [1]: 6.3 nM
half-life [28]: 204 min
remaining at 1 h, 5 µM [29]: 48%
Vd [30]: 1.2 L/kg
AUC(0-t) [31]: 32700 ng·h/mL
IC50 [32]: > 50 µM
half-life [33]: 144 min
Tmax [34]: 30 min
EC50 [2]: 22.8 nM
Cmax [35]: 1480 ng/mL
SMILES: CC(C)c1noc(N2CCC(Oc3ncnc4c(-c5ccc(S(C)(=O)=O)cc5F)csc34)CC2)n1
Activity [8]: 15%
Activity [27]: 37.4%

EC50 [1]: 5.6 nM
EC50 [2]: > 1000 nM
SMILES: CS(=O)(=O)c1ccc(-c2csc3c(OC4CCN(c5nc(C6CCCC6)no5)CC4)ncnc23)cc1

EC50 [1]: 1.4 nM
SMILES: CC(C)(C)OC(=O)N1CCC(Oc2ncnc3c(-c4ccc(S(C)(=O)=O)cc4F)csc23)CC1

IC50 [6]: > 50 µM
IC50 [7]: 3.68 µM
remaining at 1 h, 5 µM [11]: 13%
remaining at 1 h, 5 µM [13]: 6%
IC50 [14]: < 0.62 µM
IC50 [16]: 12 µM
remaining at 1 h, 5 µM [18]: 21%
EC50 [1]: 11.7 nM
IC50 [32]: > 50 µM
EC50 [2]: 11.5 nM
SMILES: CC(C)c1noc(C2CCN(c3ncnc4c(-c5ccc(S(C)(=O)=O)cc5)csc34)CC2)n1

EC50 [1]: 3.6 nM
SMILES: CC(C)(C)c1noc(N2CCC(Oc3ncnc4c(-c5ccc(S(C)(=O)=O)cc5F)csc34)CC2)n1

EC50 [1]: 2.1 nM
SMILES: CCCc1noc(N2CCC(Oc3ncnc4c(-c5ccc(S(C)(=O)=O)cc5F)csc34)CC2)n1

remaining at 1 h, 5 µM [13]: 10%
remaining at 1 h, 5 µM [18]: 23%
EC50 [1]: 8.7 nM
remaining at 1 h, 5 µM [29]: 9%
EC50 [2]: 16 nM
SMILES: CS(=O)(=O)c1ccc(-c2csc3c(N4CCC(c5nc(C6CCCC6)no5)CC4)ncnc23)cc1

EC50 [1]: 1.9 nM
EC50 [2]: 86.3 nM
SMILES: CS(=O)(=O)c1ccc(-c2csc3c(N4CCC(c5nc(C6CCCC6)no5)CC4)ncnc23)c(F)c1

EC50 [1]: 3.1 nM
EC50 [2]: 2 nM
SMILES: CCc1cnc(N2CCC(c3nc(COc4ccc(-n5cnnn5)cc4)cs3)CC2)nc1 [MBX-2982]
Activity [8]: 7.3%
Activity [27]: 29%
